The values that follow come from patent EP3323412A1, “FORMULATION COMPRISING 4-METHYLPYRAZOLE” (Amalicon Holding AG, priority 2016, dated 2018).

The nature of the data set: in vivo. More on the design: species or system dogs. Particulars: dog, iv, 10 mg/kg. On the procedure:
The formulations of 4-MP with PEG-300 and PEG-400 show an oral bioavailability of about 110% when compared with an i.v. formulation at a dose of 10mg/kg in PK studies in dogs.
The following tables 1 to 3 show results of pharmacokinetic studies of the formulation of Example 3 (capsule containing 50 mg 4-MP and 250 mg PEG-400; Table 1) in comparison with a reference formulation (capsule containing 50 mg 4-MP and PEG-8000; Table 2) and IV administration of 4-MP. For these pharmacokinetic studies, 4-MP was administered to dogs at 10 mg/kg body weight. Table 1: Pharmacokinetic parameters of 4-methylpyrazole following oral administration of the formulation of Example 3 at 10 mg/kg: […]

A word on the AUC(0-t): it is exposure summed from dosing to a finite time, without extrapolation to infinity. Lower therefore signals low exposure. In general, AUC(0-inf) refers to total exposure, with the tail of the curve extrapolated. A low value points to less exposure. A word on the clearance: it is a measure of how efficiently the substance is removed, as volume per time. Read a high clearance as a high capacity for elimination. Broadly, the Cmax is the maximum level reached in the sampled fluid or tissue. What is called Vd is a proportionality between amount in the body and measured concentration, not a real space.

In the case of `Cc1cn[nH]c1` [4-methylpyrazole, 4-Methylpyrazole], the AUC(0-t) (AUC0-t) is 88.3 µg·h/mL. Also, the area under the curve AUC(0-inf) (AUC0-∞) is 145 µg·h/mL. Further, for the setting “CL”, the clearance came out at 1.15 mL/min/kg. Besides, the Cmax (Cmax) amounted to 22600 ng/mL. The Vd was 0.94 L/kg (Vd) and 0.89 L/kg (Vdss).
